SMILES strings stand for the structures.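 Dose response: 5 concentrations. Exposure: 48 h. Format: 96-well plates. Endpoint: linear interpolation; highest concentration if not reached. At the GI50, growth is halved. TGI: concentration producing complete growth inhibition.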

Data on eight compounds can be found in PubChem BioAssay (NCI).

Test systems include ACHN renal; CAKI-1 renal; DU-145 prostate; HS 578T breast; MOLT-4 leukemia; NCI/ADR-RES ovarian; OVCAR-3 ovarian; OVCAR-4 ovarian; SN12C renal; U251 CNS.
What all share (assay): NCI anticancer screen, dose series, 48 h

For the compound `CCN1C(=O)CCCc2c1ccc(Nc1ncc(Cl)c(NC3[C@@H](C(N)=O)[C@@H]4C=C[C@H]3C4)n1)c2OC` (stereo not given in full), the GI50 in the test with ACHN renal was 2.07 µM; in the test with CAKI-1 renal it was 0.919 µM; in the test on DU-145 prostate it was 1.81 µM; in the test with HS 578T breast it was 1.88 µM; in the test with MOLT-4 leukemia, 1.41 µM; in the test on NCI/ADR-RES ovarian it was 2.35 µM. Besides, the GI50 with OVCAR-3 ovarian was 2.14 µM; in the test on OVCAR-4 ovarian, 1.94 µM; in the test with SN12C renal, 2.53 µM; in the test with U251 CNS, 1.12 µM. Also, the TGI in the test with ACHN renal is over 30.2 µM; in the test on CAKI-1 renal, 4.48 µM; in the test with DU-145 prostate, 14.6 µM; with HS 578T breast, 8.26 µM; in the test on MOLT-4 leukemia, 11.3 µM; in the test on NCI/ADR-RES ovarian, over 100 µM. Besides, the TGI with OVCAR-3 ovarian is 10.6 µM; in the test with OVCAR-4 ovarian it was over 41.3 µM; in the test with SN12C renal, 57.8 µM; in the test with U251 CNS, 13.9 µM.

`C=C1C(=O)O[C@H]2[C@H]1CC/C(COC(=O)CCSCCC(=O)OC/C1=C/CC[C@@]3(C)O[C@H]3[C@H]3OC(=O)C(=C)[C@@H]3CC1)=C\CC[C@@]1(C)O[C@@H]21`: the GI50 with ACHN renal was 0.658 µM; in the test with CAKI-1 renal it was 1.62 µM; with DU-145 prostate, 1.36 µM; in the test with HS 578T breast, 3.18 µM; with MOLT-4 leukemia it was 0.422 µM; in the test with NCI/ADR-RES ovarian it was 3.21 µM. The GI50 with OVCAR-3 ovarian is 0.451 µM; with OVCAR-4 ovarian, 1.66 µM; in the test on SN12C renal, 1.35 µM; with U251 CNS it was 1.39 µM. Besides, the TGI in the test with ACHN renal was found to be 1.89 µM; in the test on CAKI-1 renal it was 3.12 µM; in the test on DU-145 prostate, 2.71 µM; in the test with HS 578T breast it was 24.5 µM; with MOLT-4 leukemia, 2.12 µM; in the test on NCI/ADR-RES ovarian it was 11 µM. Besides, the TGI with OVCAR-3 ovarian came out at 1.69 µM; with OVCAR-4 ovarian, 3.71 µM; with SN12C renal, 3.62 µM; with U251 CNS, 3.45 µM.

In the case of `COc1ccccc1C1=C(Nc2ccccc2)C(=O)NC1=O`, the GI50 was over 25 µM with ACHN renal; over 25 µM with CAKI-1 renal; over 25 µM with DU-145 prostate; 6.25 µM with HS 578T breast; over 25 µM in the test on MOLT-4 leukemia; over 25 µM with NCI/ADR-RES ovarian. Further, the GI50 with OVCAR-3 ovarian, with OVCAR-4 ovarian, in the test on SN12C renal and with U251 CNS was over 25 µM in each case. Moreover, the TGI in the test on ACHN renal, in the test with CAKI-1 renal, with DU-145 prostate, with HS 578T breast, in the test on MOLT-4 leukemia and in the test with NCI/ADR-RES ovarian was over 25 µM each time. Moreover, the TGI in the test with OVCAR-3 ovarian, with OVCAR-4 ovarian, with SN12C renal and in the test on U251 CNS was over 25 µM in each case.

For the compound `N#Cc1c(Br)n(C2OC(CO)C(O)C2O)c2ncnc(N)c12` (stereo not given), the GI50 in the test with ACHN renal is 1.21 µM; in the test with CAKI-1 renal, 0.677 µM; in the test with DU-145 prostate, 0.844 µM; in the test with HS 578T breast, 0.696 µM; in the test on MOLT-4 leukemia it was 0.723 µM; in the test with NCI/ADR-RES ovarian, 1.43 µM. In addition, the GI50 with OVCAR-3 ovarian was 1.6 µM; in the test on OVCAR-4 ovarian it was 2.11 µM; with SN12C renal, 2.69 µM; with U251 CNS, 1.85 µM. Moreover, the TGI in the test with ACHN renal was over 90.9 µM; in the test on CAKI-1 renal, 2.91 µM; in the test on DU-145 prostate it was 23.9 µM; in the test on HS 578T breast, 8.54 µM; with MOLT-4 leukemia, 7.02 µM; with NCI/ADR-RES ovarian it was 52.5 µM. Also, the TGI with OVCAR-3 ovarian was 34.1 µM; in the test on OVCAR-4 ovarian it was 71.8 µM; in the test with SN12C renal it was over 100 µM; with U251 CNS it was over 100 µM.

For `CC(=O)N1N=C(c2ccc(Nc3ccnc4cc(Cl)ccc34)cc2)CC1c1ccc(Cl)cc1` (stereo not given), the GI50 was 3.96 µM with ACHN renal; over 100 µM with CAKI-1 renal; over 100 µM in the test with DU-145 prostate; over 100 µM in the test on HS 578T breast; 2.42 µM in the test with MOLT-4 leukemia; 3.04 µM in the test on NCI/ADR-RES ovarian. In addition, the GI50 in the test with OVCAR-3 ovarian was 7.19 µM; with OVCAR-4 ovarian, 6.92 µM; in the test on SN12C renal it was 30.7 µM; in the test with U251 CNS, over 100 µM. The TGI with ACHN renal, in the test with CAKI-1 renal, with DU-145 prostate, in the test with HS 578T breast, with MOLT-4 leukemia and in the test with NCI/ADR-RES ovarian was over 100 µM throughout. The TGI with OVCAR-3 ovarian, in the test on OVCAR-4 ovarian, in the test with SN12C renal and in the test with U251 CNS was over 100 µM in each case.

For `S=C(Nc1ccc(N=Nc2ccccc2)cc1)SCc1ccccc1`, the TGI worked out at 31.3 µM with ACHN renal; 32.9 µM in the test on CAKI-1 renal; 29.6 µM in the test with DU-145 prostate; 61.5 µM in the test on HS 578T breast; 27.9 µM with MOLT-4 leukemia; 35.1 µM in the test on NCI/ADR-RES ovarian. The TGI in the test on OVCAR-3 ovarian came to 29.4 µM; with OVCAR-4 ovarian, 33.2 µM; in the test on SN12C renal, 29.2 µM; with U251 CNS, 29.7 µM.

Consider `O=C1C2=C(c3ccccc31)C(c1ccccc1)N1C(=O)CSC1=N2` (stereo not given), for which the TGI in the test on ACHN renal was over 100 µM; in the test on CAKI-1 renal, over 100 µM; in the test on DU-145 prostate it was over 100 µM; in the test on HS 578T breast, 82.2 µM; with MOLT-4 leukemia it was over 100 µM; with NCI/ADR-RES ovarian, 59.1 µM. In addition, the TGI with OVCAR-3 ovarian is over 100 µM; in the test with OVCAR-4 ovarian it was over 100 µM; in the test with SN12C renal, over 94.9 µM; with U251 CNS, over 100 µM.

For the compound `CN(COC(=O)c1ccccc1)c1nc(N(C)COC(=O)c2ccccc2)nc(N(C)COC(=O)c2ccccc2)n1`, the TGI in the test with ACHN renal was 78.7 µM; in the test with CAKI-1 renal it was over 86.2 µM; with DU-145 prostate it was over 100 µM; in the test on HS 578T breast, over 100 µM; with MOLT-4 leukemia, over 100 µM; in the test on NCI/ADR-RES ovarian it was over 100 µM. Besides, the TGI with OVCAR-3 ovarian is over 100 µM; in the test on OVCAR-4 ovarian, over 100 µM; in the test with SN12C renal it was over 100 µM; in the test with U251 CNS, over 83.7 µM.
